# According to PMC10535864, “Novel Aminopyrimidine-2,4-diones, 2-Thiopyrimidine-4-ones, and 6-Arylpteridines as Dual-Target Inhibitors of BRD4/PLK1: Design, Synthesis, Cytotoxicity, and Computational Studies” (Pharmaceuticals, 2023):
# Assays:
# Type in all cases: cell-based
# [1] = MTT cytotoxicity assay, U-937; details: Homo sapiens, U-937, U937, MTT;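 further: Six-dose MTT colorimetric assay on cell monolayers, formazan absorbance read at 560 nm with 620 nm background removed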
# U-937 renal cancer cells = assay: MTT cytotoxicity assay, U-937; details: MTT; for IC50: Homo sapiens, U-937, mean of three independent experiments ± SD, read-out: IC50 Value U-937; for Toxicity %: U937;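 on all read-outs here: Six-dose MTT colorimetric assay on cell monolayers, formazan absorbance read at 560 nm with 620 nm background removed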
# [2] = tested on: MDA-MB-231 breast cancer cells; assay: MTT cytotoxicity assay, MDA-MB-231; details: MDA-MB-231, MTT; for IC50 / viability at 0.312 µM / viability at 0.625 µM / viability at 1.25 µM / viability at 2.5 µM / viability at 5 µM / viability at 10 µM: Homo sapiens; for IC50: mean of three independent experiments ± SD, read-out: IC50 Value MDA-MB-231
# Experimental: (§1) All newly synthetic compounds were tested for cytotoxicity using a six-dose MTT colorimetric assay on three cancer cell lines; namely, breast cancer cells (MDA-MB-231), colorectal adenocarcinoma cells (HT-29) and renal cancer cells (U-937). […] However, renal cancer cells (U-937) were discovered to be the least sensitive.
# (§2) Using a six-dose MTT colorimetric assay, all new synthetic compounds were tested for cytotoxicity against three cancer cell lines: MDA-MB-231 breast cancer cells, HT-29 colorectal adenocarcinoma cells, and U-937 renal cancer cells. […] These cell lines were supplied by ATCC (American Type Culture Collection) via the Holding company for biological products and vaccines (VACSERA, Cairo, Egypt). The reference control used was Methotrexate. Detailed descriptions of the MTT colorimetric assay’s protocol can be found in the Supplementary file.
# (§3) 1.1.In-vitro cytotoxicity screening
# (§4) Using a six-dose MTT colorimetric assay, allnew synthetic compounds were tested for cytotoxicity against three cancer cell lines: MDA-MB-231 breast cancer cells,HT-29 colorectal adenocarcinoma cells, and U-937 renal […]
# (§5) The cell lines were supplied by ATCC (American Type Culture Collection). The reference control used was Methotrexate. The cytotoxic activities of the examined compounds were quantified by inoculating a 96-well tissue culture plate with 1 X 10^5 cells / mL (100 uL/well) and incubating it at 37°C for 24 hours to develop a complete monolayer sheet. After forming a confluent sheet of cells, the growth medium was decanted from 96-well microtiter plates, and the cell monolayer was washed twice with wash media. Two-fold dilutions of tested samples were made in RPMI medium with 2% serum (maintenance medium), and 0.1 mL of each dilution was tested in different wells, with three wells serving as controls and receiving only maintenance medium. Following that, the plate was incubated at 37°C and examined. Cells were investigated for any physical signs of toxicity, such as partial or complete monolayer loss, rounding, shrinkage, or cell granulation. MTT solution was prepared (5mg/ml in PBS) (BIO BASIC CANADA INC), and 20 uL MTT solution was added to each well. After 5 minutes on a shaking table at150 rpm to thoroughly mix the MTT into the media, it was incubated (37°C, 5% CO2) for 4 hours to allow the MTT to be metabolized. Formazan (MTT metabolic product) was resuspended in 200 uL DMSO and shaken at 150 rpm for 5 minutes to thoroughly mix the formazan into the solvent. The optical density was measured at 560 nm, and the background was subtracted at 620 nm. Finally, the IC50 of the test compound in comparison to the reference was calculated using the GraphPad Prism software. […]
# [3] = tested on: HT-29 colorectal adenocarcinoma cells; assay: MTT cytotoxicity assay, HT-29; details: MTT; for Toxicity % / viability at 0.312 µM / viability at 0.625 µM / viability at 1.25 µM / viability at 2.5 µM / viability at 5 µM / viability at 10 µM: HT29; for viability at 0.312 µM / viability at 0.625 µM / viability at 1.25 µM / viability at 2.5 µM / viability at 5 µM / viability at 10 µM / IC50: Homo sapiens, HT-29; for IC50: mean of three independent experiments ± SD, read-out: IC50 Value HT-29
# Experimental: as §1, §2, §3, §4, §5
smiles,measurement,setting,value
"Nc1c(/N=C(/CBr)c2ccc([N+](=O)[O-])cc2)c(=O)[nH]c(=O)n1Cc1ccccc1Cl [Compound 5c, (E)-6-Amino-5-((2-bromo-1-(4-nitrophenyl)ethylidene)amino)-1-(2-chlorobenzyl) pyrimidine-2,4(1H,3H)-dione]",viability at 0.312 µM,[1],99.7%
same,viability at 0.625 µM,[1],99.5%
same,viability at 1.25 µM,[1],99.7%
same,viability at 2.5 µM,[1],99.3%
same,viability at 5 µM,[1],48.2%
same,viability at 10 µM,[1],14.3%
same,IC50,U-937 renal cancer cells,6.17 ± 0.15 µM
same,Toxicity %,U-937 renal cancer cells; 0.312 uM,0.3268%
same,Toxicity %,U-937 renal cancer cells; 0.625 uM,0.4902%
same,Toxicity %,U-937 renal cancer cells; 1.25 uM,0.2723%
same,Toxicity %,U-937 renal cancer cells; 2.5 uM,0.6536%
same,Toxicity %,U-937 renal cancer cells; 5 uM,51.8%
same,Toxicity %,U-937 renal cancer cells; 10 uM,85.73%
same,IC50,[2],3.28 ± 0.04 µM
same,viability at 0.312 µM,[2]; 0.312 uM,99.4%
same,viability at 0.625 µM,[2]; 0.625 uM,98.4%
same,viability at 1.25 µM,[2]; 1.25 uM,96.1%
same,viability at 2.5 µM,[2]; 2.5 uM,62.4%
same,viability at 5 µM,[2]; 5 uM,14.9%
same,viability at 10 µM,[2]; 10 uM,5.54%
same,Toxicity %,[2]; 0.312 uM,0.6206%
same,Toxicity %,[2]; 0.625 uM,1.551%
same,Toxicity %,[2]; 1.25 uM,3.901%
same,Toxicity %,[2]; 2.5 uM,37.63%
same,Toxicity %,[2]; 5 uM,85.06%
same,Toxicity %,[2]; 10 uM,94.46%
same,Toxicity %,[3]; 0.312 uM,0.1292%
same,Toxicity %,[3]; 0.625 uM,0.2153%
same,Toxicity %,[3]; 1.25 uM,6.417%
same,Toxicity %,[3]; 2.5 uM,59.99%
same,Toxicity %,[3]; 5 uM,93.84%
same,Toxicity %,[3]; 10 uM,94.36%
same,viability at 0.312 µM,[3]; 0.312 uM,99.9%
same,viability at 0.625 µM,[3]; 0.625 uM,99.8%
same,viability at 1.25 µM,[3]; 1.25 uM,93.6%
same,viability at 2.5 µM,[3]; 2.5 uM,40%
same,viability at 5 µM,[3]; 5 uM,6.16%
same,viability at 10 µM,[3]; 10 uM,5.64%
same,IC50,[3],2.24 ± 0.04 µM
"CCn1c(N)c(/N=C(/CBr)c2ccc([N+](=O)[O-])cc2)c(=O)[nH]c1=O [Compound 5a, (E)-6-Amino-5-((2-bromo-1-(4-nitrophenyl)ethylidene)amino)-1-ethylpyrimidine-2,4(1H,3H)-dione]",viability at 0.312 µM,[1],99.6%
same,viability at 0.625 µM,[1],98.9%
same,viability at 1.25 µM,[1],99.6%
same,viability at 2.5 µM,[1],89.7%
same,viability at 5 µM,[1],55.1%
same,viability at 10 µM,[1],12.7%
same,IC50,U-937 renal cancer cells,6.08 ± 0.11 µM
same,Toxicity %,U-937 renal cancer cells; 0.312 uM,0.4357%
same,Toxicity %,U-937 renal cancer cells; 0.625 uM,1.144%
same,Toxicity %,U-937 renal cancer cells; 1.25 uM,0.4357%
same,Toxicity %,U-937 renal cancer cells; 2.5 uM,10.29%
same,Toxicity %,U-937 renal cancer cells; 5 uM,44.93%
same,Toxicity %,U-937 renal cancer cells; 10 uM,87.31%
same,IC50,[2],3.24 ± 0.03 µM
same,viability at 0.312 µM,[2]; 0.312 uM,99.7%
same,viability at 0.625 µM,[2]; 0.625 uM,99.6%
same,viability at 1.25 µM,[2]; 1.25 uM,91.2%
same,viability at 2.5 µM,[2]; 2.5 uM,53%
same,viability at 5 µM,[2]; 5 uM,23.8%
same,viability at 10 µM,[2]; 10 uM,4.21%
same,Toxicity %,[2]; 0.312 uM,0.266%
same,Toxicity %,[2]; 0.625 uM,0.4433%
same,Toxicity %,[2]; 1.25 uM,8.821%
same,Toxicity %,[2]; 2.5 uM,46.99%
same,Toxicity %,[2]; 5 uM,76.2%
same,Toxicity %,[2]; 10 uM,95.79%
same,Toxicity %,[3]; 0.312 uM,0.1292%
same,Toxicity %,[3]; 0.625 uM,0.2584%
same,Toxicity %,[3]; 1.25 uM,5.556%
same,Toxicity %,[3]; 2.5 uM,50.3%
same,Toxicity %,[3]; 5 uM,83.29%
same,Toxicity %,[3]; 10 uM,97.46%
same,viability at 0.312 µM,[3]; 0.312 uM,99.9%
same,viability at 0.625 µM,[3]; 0.625 uM,99.7%
same,viability at 1.25 µM,[3]; 1.25 uM,94.4%
same,viability at 2.5 µM,[3]; 2.5 uM,49.7%
same,viability at 5 µM,[3]; 5 uM,16.7%
same,viability at 10 µM,[3]; 10 uM,2.54%
same,IC50,[3],3.09 ± 0.01 µM
"Nc1c(/N=C(/CBr)c2ccc([N+](=O)[O-])cc2)c(=O)[nH]c(=O)n1Cc1ccccc1 [Compound 5b, (E)-6-Amino-1-benzyl-5-((2-bromo-1-(4-nitrophenyl)ethylidene)amino)pyrimidine-2,4(1H,3H)-dione]",viability at 0.312 µM,[1],99.9%
same,viability at 0.625 µM,[1],99.9%
same,viability at 1.25 µM,[1],99.6%
same,viability at 2.5 µM,[1],99.1%
same,viability at 5 µM,[1],50.3%
same,viability at 10 µM,[1],16.3%
same,IC50,U-937 renal cancer cells,6.29 ± 0.26 µM
same,Toxicity %,U-937 renal cancer cells; 0.312 uM,0.05447%
same,Toxicity %,U-937 renal cancer cells; 0.625 uM,0.1089%
same,Toxicity %,U-937 renal cancer cells; 1.25 uM,0.3813%
same,Toxicity %,U-937 renal cancer cells; 2.5 uM,0.8715%
same,Toxicity %,U-937 renal cancer cells; 5 uM,49.73%
same,Toxicity %,U-937 renal cancer cells; 10 uM,83.71%
same,IC50,[2],2.37 ± 0.06 µM
same,viability at 0.312 µM,[2]; 0.312 uM,99.4%
same,viability at 0.625 µM,[2]; 0.625 uM,99.4%
same,viability at 1.25 µM,[2]; 1.25 uM,84.7%
same,viability at 2.5 µM,[2]; 2.5 uM,45.8%
same,viability at 5 µM,[2]; 5 uM,23.2%
same,viability at 10 µM,[2]; 10 uM,8.07%
same,Toxicity %,[2]; 0.312 uM,0.6206%
same,Toxicity %,[2]; 0.625 uM,0.5762%
same,Toxicity %,[2]; 1.25 uM,15.34%
same,Toxicity %,[2]; 2.5 uM,54.21%
same,Toxicity %,[2]; 5 uM,76.77%
same,Toxicity %,[2]; 10 uM,91.93%
same,Toxicity %,[3]; 0.312 uM,0%
same,Toxicity %,[3]; 0.625 uM,0.1292%
same,Toxicity %,[3]; 1.25 uM,6.891%
same,Toxicity %,[3]; 2.5 uM,27.39%
same,Toxicity %,[3]; 5 uM,74.68%
same,Toxicity %,[3]; 10 uM,88.24%
same,viability at 0.312 µM,[3]; 0.312 uM,100%
same,viability at 0.625 µM,[3]; 0.625 uM,99.9%
same,viability at 1.25 µM,[3]; 1.25 uM,93.1%
same,viability at 2.5 µM,[3]; 2.5 uM,72.6%
same,viability at 5 µM,[3]; 5 uM,25.3%
same,viability at 10 µM,[3]; 10 uM,11.8%
same,IC50,[3],3.66 ± 0.05 µM
